Assays:
[1] = molecular target: CYP2C19 (P450 Isozyme 2C19) (Homo sapiens, UniProt P33261); assay: Mephenytoin hydroxylase activity in human microsome preparations; conditions: human, human microsome preparations, probe mephenytoin
CYP2B (P450 Isozyme 2B) = assay: Lauric acid 11-hydroxylase activity in human microsome preparations; conditions: human, human microsome preparations, probe lauric acid
[2] = molecular target: CYP2C9 (P450 Isozyme 2C9) (Homo sapiens, UniProt P11712); assay: Tolbutamide hydroxylase activity in human microsome preparations; conditions: microsomes
Sequence of CYP2C9 (P450 Isozyme 2C9) (P11712 whole entry): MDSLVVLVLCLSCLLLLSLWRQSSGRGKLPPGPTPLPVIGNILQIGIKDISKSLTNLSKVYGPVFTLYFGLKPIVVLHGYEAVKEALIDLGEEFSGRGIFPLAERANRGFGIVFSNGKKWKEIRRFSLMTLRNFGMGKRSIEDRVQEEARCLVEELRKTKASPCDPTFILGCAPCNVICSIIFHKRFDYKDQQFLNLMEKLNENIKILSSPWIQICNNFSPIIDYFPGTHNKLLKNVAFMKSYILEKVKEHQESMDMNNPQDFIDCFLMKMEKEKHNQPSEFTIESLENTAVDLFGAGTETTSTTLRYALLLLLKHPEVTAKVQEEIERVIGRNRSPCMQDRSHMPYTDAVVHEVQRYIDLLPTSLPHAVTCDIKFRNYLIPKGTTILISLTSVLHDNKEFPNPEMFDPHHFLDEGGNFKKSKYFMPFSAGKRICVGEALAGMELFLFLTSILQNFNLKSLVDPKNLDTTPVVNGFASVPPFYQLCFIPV

[3] = molecular target: CYP2D6 (P450 Isozyme 2D6) (Homo sapiens, UniProt P10635); assay: Bufuralol hydroxylase activity in human microsome preparations; conditions: human
Sequence of CYP2D6 (P450 Isozyme 2D6) (P10635 whole entry): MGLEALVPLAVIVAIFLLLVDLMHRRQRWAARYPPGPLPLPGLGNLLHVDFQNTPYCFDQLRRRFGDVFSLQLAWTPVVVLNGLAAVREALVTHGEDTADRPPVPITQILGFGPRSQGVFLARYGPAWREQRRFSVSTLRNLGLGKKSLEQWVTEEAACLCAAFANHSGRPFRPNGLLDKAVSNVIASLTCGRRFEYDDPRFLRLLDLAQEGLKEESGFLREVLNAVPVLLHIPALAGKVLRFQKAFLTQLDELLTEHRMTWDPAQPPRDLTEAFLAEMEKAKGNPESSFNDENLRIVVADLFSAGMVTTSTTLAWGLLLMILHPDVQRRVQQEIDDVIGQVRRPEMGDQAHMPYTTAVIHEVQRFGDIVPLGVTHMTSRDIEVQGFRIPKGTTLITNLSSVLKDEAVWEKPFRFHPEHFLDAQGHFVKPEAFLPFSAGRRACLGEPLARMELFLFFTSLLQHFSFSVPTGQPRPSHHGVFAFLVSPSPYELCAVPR

rats = conditions: 10 mg/kg, given 10 minutes following methylphenidate, within 15 to 25 minutes; cited from earlier work
P450 Isozyme 2C19 = P450 Isozyme 2C19 (Homo sapiens, UniProt P33261); assay: Mephenytoin hydroxylase activity in human microsome preparations; conditions: test substance at 100 μM, human microsomes
Sequence of P450 Isozyme 2C19 (P33261 whole entry): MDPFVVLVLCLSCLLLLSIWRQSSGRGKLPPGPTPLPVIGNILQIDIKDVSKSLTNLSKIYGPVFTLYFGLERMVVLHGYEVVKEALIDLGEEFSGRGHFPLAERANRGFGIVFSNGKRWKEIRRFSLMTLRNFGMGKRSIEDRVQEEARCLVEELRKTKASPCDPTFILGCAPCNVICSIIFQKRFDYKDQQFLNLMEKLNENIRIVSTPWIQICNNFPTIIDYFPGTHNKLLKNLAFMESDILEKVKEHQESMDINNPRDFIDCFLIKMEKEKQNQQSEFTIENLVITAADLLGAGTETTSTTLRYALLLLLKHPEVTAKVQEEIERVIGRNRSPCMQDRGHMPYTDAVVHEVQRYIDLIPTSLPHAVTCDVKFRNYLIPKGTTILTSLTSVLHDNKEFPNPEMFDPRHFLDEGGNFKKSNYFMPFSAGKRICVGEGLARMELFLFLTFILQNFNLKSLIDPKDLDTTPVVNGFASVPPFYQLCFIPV

P450 Isozyme 2B = assay: Lauric acid 11-hydroxylase activity in human microsome preparations; conditions: test substance at 100 μM, human microsomes
mouse liver = assay: Toxicity in the mouse liver; type: in vivo; conditions: compared with racemic methylphenidate
Source text: The invention is thus of particular utility in that proportion of the population in which the relevant enzymes have reduced efficiency, or that are receiving the cross-reacting drugs, e.g SSRIs, in therapy of, say, anxiety or depression.

P450 Isozyme 2D6 = P450 Isozyme 2D6 (Homo sapiens, UniProt P10635); assay: Bufuralol hydroxylase activity in human microsome preparations; conditions: test substance at 100 μM, human microsomes
Sequence of P450 Isozyme 2D6 (P10635 whole entry): as the sequence (P10635 whole entry) above

Sequence of CYP2C19 (P450 Isozyme 2C19) (P33261 whole entry): as the sequence (P33261 whole entry) above

## COC(=O)C(c1ccccc1)C1CCCCN1 (racemic) [Racemic Methylphenidate, methylphenidate]
[1]
  inhibition at 100 µM: 44%
CYP2B (P450 Isozyme 2B)
  inhibition at 100 µM: < 15%
[2]
  inhibition at 100 µM: 19%
[3]; microsomes
  inhibition at 100 µM: 65%

## NCC(CC(=O)O)c1ccc(Cl)cc1 (stereo not shown) [Baclofen]
rats
  block of methylphenidate-enhanced activity and stereotypics: uniform block

## C=C[C@H]1C[N@@]2CC[C@H]1C[C@@H]2[C@@H](O)c1ccnc2ccc(OC)cc12 [Quinidine]
[3]; human microsome preparations, probe bufuralol
  inhibition at 10 µM: > 90%

## COC(=O)[C@H](c1ccccc1)[C@H]1CCCCN1 [dtmp, d-threo-methylphenidate]
P450 Isozyme 2C19
  % Inhibition of Enzyme Activity (Mephenytoin hydroxylase, 2C19): 31%
P450 Isozyme 2B
  % Inhibition of Enzyme Activity (Lauric acid 11-hydroxylase, 2B): <20%
Mouse liver
  toxicity in the mouse liver: less toxicity in the mouse liver than racemic methylphenidate
P450 Isozyme 2D6
  % Inhibition of Enzyme Activity (Bufuralol hydroxylase, 2D6): 64%

## COC(=O)[C@@H](c1ccccc1)[C@@H]1CCCCN1 [ltmp]
P450 Isozyme 2C19
  % Inhibition of Enzyme Activity (Mephenytoin hydroxylase, 2C19): 33%
P450 Isozyme 2B
  % Inhibition of Enzyme Activity (Lauric acid 11-hydroxylase, 2B): <20%
P450 Isozyme 2D6
  % Inhibition of Enzyme Activity (Bufuralol hydroxylase, 2D6): 41%

Source: patent US7267949B2, “Composition comprising methylphenidate and another drug” (Celltech Pharma Europe Limited, priority 1995, dated 2007)
